System: male Balb/c mice
Experiment: TNBS-induced experimental colitis in mice, lesion length of the colon
Format: in vivo
Conditions: for improvement of colitis compared with combination administration, in words: single administration at a dose higher than that in the combination administration
Protocol: A total of 0.08 ml of a 1:1 (v/v) mixture of 10% picrylsulfonic acid (TNBS) solution and ethanol was administered to anesthetized male Balb/c mice (Charles River Japan, Inc., Yokohama, Japan) according to previous reports (J Exp Med 2001; 193: p 827-38, J Exp Med 2001; 193: p 25-34) to thereby induce experimental colitis. The colon (large intestine) was sampled two days later, and the length of a flare site accompanied with ulcer or hyperplasia near to the lumen was measured and was defined as the lesion length. The inhibition (%) was calculated from the average lesion length of a treated group, compared with the average lesion length of a control group. The test compound suspended in a 0.5% solution of methylcellulose was orally administered to the mice via sonde once a day from two days before the beginning of colitis induction.

Compound | Inhibition (%) of average lesion length (Compound 1 0.3 mg/kg/day, oral, once a day) | Inhibition (%) of average lesion length (Compound 1 1 mg/kg/day, oral, once a day) | Inhibition (%) of average lesion length (Compound 1 3 mg/kg/day, oral, once a day (Table 2)) | Inhibition (%) of average lesion length (Compound 1 10 mg/kg/day, oral, once a day) | Inhibiton (%) of average lesion length (Table 5: Compound 1 3 mg/kg/day alone) | improvement of colitis, in words (single administration) | improvement of colitis compared with combination administration, in words | Inhibition (%) of average lesion length (Rosiglitazone 1 mg/kg/day, oral, once a day, single administration) | Inhibition (%) of average lesion length (Rosiglitazone 10 mg/kg/day, oral, once a day, single administration) | Inhibiton (%) of average lesion length (Sulfasalazine 100 mg/kg/day, oral, single administration (Table 3)) | Inhibiton (%) of average lesion length (Sulfasalazine 300 mg/kg/day, oral, single administration) | Inhibiton (%) of average lesion length (Table 5: Sulfasalazine 100 mg/kg/day alone)
CC(C)O[C@@H](Cc1cccc(CNC(=O)OCc2cccc(OC(F)(F)F)c2)c1)C(=O)O [Compound 1, 3-(3-{[3-trifluoromethoxybenzyloxycarbonylamino]methyl}phenyl)-2(S)-isopropoxypropanoic acid] | 8% | 21% | 38% | 34% | 29% | partially improves colitis | improves colitis less effectively | – | – | – | – | –
CN(CCOc1ccc(CC2SC(=O)NC2=O)cc1)c1ccccn1 (centres unmarked) [Rosiglitazone, rosiglitazone] | – | – | – | – | – | – | – | 23% | 37% | – | – | –
O=C(O)c1cc(N=Nc2ccc(S(=O)(=O)Nc3ccccn3)cc2)ccc1O [Sulfasalazine, 2-hydroxy-5-[[4-[(2-pyridinylamino)sulfonyl]phenyl]-azo]benzoic acid] | – | – | – | – | – | partially improves colitis | improves colitis less effectively | – | – | 40% | 35% | 43%

— patent US20060177444A1, “Concomitant drug as therapeutic agent for inflammatory bowel disease” (priority 2003, published 2006)
